How the values were obtained:
[1] = target: T1, Bug27 (Bordetella pertussis, UniProt Q7W019); test: intrinsic tryptophan fluorescence quenching titration; format: binding
T1 construct: gene BP0682; mature periplasmic domain, signal peptide omitted, pET28c NcoI/HindIII, C-terminal His tag kept; E. coli BL21(DE3); denatured and renatured to remove endogenous ligands
T1 sequence (Q7W019 30-330): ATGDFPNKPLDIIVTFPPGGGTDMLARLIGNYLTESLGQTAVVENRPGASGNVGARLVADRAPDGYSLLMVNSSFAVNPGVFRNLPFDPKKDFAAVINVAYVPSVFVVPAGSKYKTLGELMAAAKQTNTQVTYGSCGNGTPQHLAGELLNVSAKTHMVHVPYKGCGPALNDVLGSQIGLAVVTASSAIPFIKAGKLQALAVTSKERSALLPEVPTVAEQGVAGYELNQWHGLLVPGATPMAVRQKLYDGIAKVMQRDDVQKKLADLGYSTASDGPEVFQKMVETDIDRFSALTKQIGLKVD

[2] = target: T2, Bug69 (Bordetella pertussis, UniProt Q7VUA0); test: as above; format: binding; conditions: 20 °C; 0.1 μM protein; excitation 295 nm, fit at 328 nm
T2 construct: gene BP3219; mature periplasmic domain, signal peptide omitted, pET28c NcoI/XhoI, C-terminal His tag kept; E. coli BL21(DE3); denatured and renatured to remove endogenous ligands
T2 sequence (Q7VUA0 32-332): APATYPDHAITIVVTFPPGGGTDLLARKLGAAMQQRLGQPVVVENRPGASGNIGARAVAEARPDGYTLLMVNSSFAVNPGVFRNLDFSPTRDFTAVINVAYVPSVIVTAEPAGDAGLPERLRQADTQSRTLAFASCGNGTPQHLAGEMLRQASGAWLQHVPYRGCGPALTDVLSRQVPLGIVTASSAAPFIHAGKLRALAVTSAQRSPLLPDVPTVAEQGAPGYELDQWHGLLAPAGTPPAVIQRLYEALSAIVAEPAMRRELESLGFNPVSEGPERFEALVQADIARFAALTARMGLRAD

Which Kd [1] does the source give for `O=C(O)c1cccnc1C(=O)O` [quinolinate] here?
The Kd was 136 ± 28 nM.

What about the Kd [2] of the same compound?
Its Kd is 70 ± 22 nM.

From publication PMC11452294, “Periplasmic binding proteins Bug69 and Bug27 from Bordetella pertussis are in vitro high‐affinity quinolinate binders with a potential role in NAD biosynthesis” (FEBS Open Bio, 2024)
